Laboratory results as given in patent US11198681B2, “Heteroaryl inhibitors of PAD4” (Padlock Therapeutics, Inc., priority 2016, dated 2021).
Read-outs that look alike come from different tables or passages of the source.

Target: hPAD4 (Homo sapiens (Human), UniProt Q9UM07)
Assay: hPAD4 AR assay (Table 2)
Format: biochemical
[1] = read-out: hPAD4 AR pIC50 (converted)

Sequence of hPAD4 (Q9UM07 whole entry): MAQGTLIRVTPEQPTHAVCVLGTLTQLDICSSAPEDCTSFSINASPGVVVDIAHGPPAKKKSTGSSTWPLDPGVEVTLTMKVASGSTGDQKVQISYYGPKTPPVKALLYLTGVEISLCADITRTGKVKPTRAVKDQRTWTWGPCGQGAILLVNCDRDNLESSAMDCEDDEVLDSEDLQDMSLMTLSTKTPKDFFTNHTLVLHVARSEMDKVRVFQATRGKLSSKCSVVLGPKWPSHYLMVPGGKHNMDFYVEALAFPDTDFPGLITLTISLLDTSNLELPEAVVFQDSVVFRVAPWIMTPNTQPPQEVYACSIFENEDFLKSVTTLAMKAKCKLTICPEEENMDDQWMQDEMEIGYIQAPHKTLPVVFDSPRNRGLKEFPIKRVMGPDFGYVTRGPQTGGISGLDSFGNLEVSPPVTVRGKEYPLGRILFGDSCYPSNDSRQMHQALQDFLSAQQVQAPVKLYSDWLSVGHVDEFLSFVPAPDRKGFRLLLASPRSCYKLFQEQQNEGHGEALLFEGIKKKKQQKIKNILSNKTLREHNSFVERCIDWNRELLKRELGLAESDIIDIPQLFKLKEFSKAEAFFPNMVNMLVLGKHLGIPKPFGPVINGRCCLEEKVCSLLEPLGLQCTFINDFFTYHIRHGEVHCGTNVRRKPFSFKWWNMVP

Structure (SMILES): COc1cc(C(=O)N2C[C@H]3CC[C@@H]2[C@@H]3N)cc2nc(-c3ccc(C#N)n3C3CC3)n(C)c12 [I-81, 5-{5-[(1R,4R,7R)-7-Amino-2-azabicyclo[2.2.1]heptane-2-carbonyl]-7-methoxy-1-methyl-1H-1,3-benzodiazol-2-yl}-1-cyclopropyl-1H-pyrrole-2-carbonitrile]
- IC50 (read-out: hPAD4 AR IC50): < 1000 nM
- IC50 [1]: < 1000 nM

Structure (SMILES): COc1cc(C(=O)N2C[C@H]3CC[C@@H]2[C@@H]3N)cc2nc(-c3ccc(C#N)n3CC(F)(F)F)n(C)c12 [I-82, 5-{5-[(1R,4R,7R)-7-Amino-2-azabicyclo[2.2.1]heptane-2-carbonyl]-7-methoxy-1-methyl-1H-1,3-benzodiazol-2-yl}-1-(2,2,2-trifluoroethyl)-1H-pyrrole-2-carbonitrile]
- IC50 (read-out: hPAD4 AR IC50): < 1000 nM
- IC50 [1]: < 1000 nM

Structure (SMILES): COc1cc(C(=O)N2C[C@H]3CC[C@@H]2[C@@H]3N)cc2nc(-c3ccc(C#N)n3C[C@@H](C)c3ccccc3)n(C)c12 [I-84]
- IC50 (read-out: hPAD4 AR IC50): < 1000 nM
- IC50 [1]: < 1000 nM

Structure (SMILES): COc1cc(C(=O)N2C[C@H]3CC[C@@H]2[C@@H]3N)cc2nc(-c3ccc(C#N)n3C[C@H](C)c3ccccc3)n(C)c12 [I-85]
- IC50 (read-out: hPAD4 AR IC50): < 1000 nM
- IC50 [1]: < 1000 nM

Structure (SMILES): CCn1c(-c2cnc(-c3ccccc3)n2CC2CC2)nc2cc(C(=O)N3C[C@H]4CC[C@@H]3[C@@H]4N)cc(OC)c21 [I-86, (1R,4R,7R)-2-{2-[1-(Cyclopropylmethyl)-2-phenyl-1H-imidazol-5-yl]-1-ethyl-7-methoxy-1H-1,3-benzodiazole-5-carbonyl}-2-azabicyclo[2.2.1]heptan-7-amine]
- IC50 (read-out: hPAD4 AR IC50): < 1000 nM
- IC50 [1]: < 1000 nM

Structure (SMILES): Cn1c(-c2cnc(-c3ccccc3)n2CC2CC2)nc2cc(C(=O)N3C[C@H]4CC[C@@H]3[C@@H]4N)cc(F)c21 [I-87]
- IC50 (read-out: hPAD4 AR IC50): < 1000 nM
- IC50 [1]: < 1000 nM

Structure (SMILES): COc1cccc(-c2nc3cc(C(=O)N4C[C@H]5CC[C@@H]4[C@@H]5N)cc(OC)c3n2C)n1 [I-88]
- IC50 (read-out: hPAD4 AR IC50): > 10000 nM
- IC50 [1]: 10000 to 100000 nM

Structure (SMILES): COc1cc(C(=O)N2C[C@H]3CC[C@@H]2[C@@H]3N)cc2nc(-c3ccc(C#N)n3C[C@H]3C[C@@](C)(OC)C3)n(C)c12 [I-89, 5-{5-[(1R,4R,7R)-7-Amino-2-azabicyclo[2.2.1]heptane-2-carbonyl]-7-methoxy-1-methyl-1H-1,3-benzodiazol-2-yl}-1-{[(1R,3S)-3-methoxy-3-methylcyclobutyl]methyl}-1H-pyrrole-2-carbonitrile]
- IC50 (read-out: hPAD4 AR IC50): < 1000 nM
- IC50 [1]: < 1000 nM

Structure (SMILES): CCc1c(-c2nc3cc(C(=O)N4C[C@H]5CC[C@@H]4[C@@H]5N)cc(OC)c3n2C)ccn1S(=O)(=O)c1ccc(C)cc1 [I-92]
- IC50 (read-out: hPAD4 AR IC50): < 1000 nM
- IC50 [1]: < 1000 nM

Structure (SMILES): COc1cc(C(=O)N2C[C@H]3CC[C@@H]2[C@@H]3N)cc2nc(-c3cccc(=O)n3CC3CC3)n(C)c12 [I-102, 6-{5-[(1R,4R,7R)-7-Amino-2-azabicyclo[2.2.1]heptane-2-carbonyl]-7-methoxy-1-methyl-1H-1,3-benzodiazol-2-yl}-1-(cyclopropylmethyl)-1,2-dihydropyridin-2-one]
- IC50 (read-out: hPAD4 AR IC50): < 1000 nM
- IC50 [1]: < 1000 nM

Structure (SMILES): COc1cc(C(=O)N2C[C@H]3CC[C@@H]2[C@@H]3N)cc2nc(-c3cccnc3CC3CC3)n(C)c12 [I-105, (1R,4R,7R)-2-{2-[2-(Cyclopropylmethyl)pyridin-3-yl]-7-methoxy-1-methyl-1H-1,3-benzodiazole-5-carbonyl}-2-azabicyclo[2.2.1]heptan-7-amine]
- IC50 (read-out: hPAD4 AR IC50): < 1000 nM
- IC50 [1]: < 1000 nM

Structure (SMILES): COc1cc(C(=O)N2C[C@H]3CC[C@@H]2[C@@H]3N)cc2nc(-c3cccnc3CC3CC3C)n(C)c12 (some centres unmarked) [I-108]
- IC50 (read-out: hPAD4 AR IC50): < 1000 nM
- IC50 [1]: < 1000 nM

Structure (SMILES): COc1cc(C(=O)N2C[C@H]3CC[C@@H]2[C@@H]3N)cc2nc(-c3ccc(Br)c(=O)n3CC3CC3)n(C)c12 [I-111]
- IC50 (read-out: hPAD4 AR IC50): < 1000 nM
- IC50 [1]: < 1000 nM

Structure (SMILES): COc1cc(C(=O)N2C[C@H]3CC[C@@H]2[C@@H]3N)cc2nc(-c3ccc(C)c(=O)n3CC3CC3)n(C)c12 [I-112, 6-{5-[(1R,4R,7R)-7-Amino-2-azabicyclo[2.2.1]heptane-2-carbonyl]-7-methoxy-1-methyl-1H-1,3-benzodiazol-2-yl}-1-(cyclopropylmethyl)-3-methyl-1,2-dihydropyridin-2-one]
- IC50 (read-out: hPAD4 AR IC50): < 1000 nM
- IC50 [1]: < 1000 nM

Structure (SMILES): COc1cc(C(=O)N2C[C@H]3CC[C@@H]2[C@@H]3N)cc2nc(-c3ccc(C)nc3CC3CC3)n(C)c12 [I-115]
- IC50 (read-out: hPAD4 AR IC50): < 1000 nM
- IC50 [1]: < 1000 nM

Structure (SMILES): COc1cc(C(=O)N2C[C@H]3CC[C@@H]2[C@@H]3N)cc2nc(-c3ccc(F)nc3CC3CC3)n(C)c12 [I-117, (1R,4R,7R)-2-{2-[2-(Cyclopropylmethyl)-6-fluoropyridin-3-yl]-7-methoxy-1-methyl-1H-1,3-benzodiazole-5-carbonyl}-2-azabicyclo[2.2.1]heptan-7-amine]
- IC50 (read-out: hPAD4 AR IC50): < 1000 nM
- IC50 [1]: < 1000 nM
